Source: patent publication US20090104177A1, “PEPTIDES FOR INHIBITING THE INTERACTION OF PROTEIN KINASE A AND PROTEIN KINASE A ANCHOR PROTEINS” (FORSCHUNGSVERBUND BERLIN E.V., priority 2004, published 2009)
Entries after “also recorded” stand apart in the source; their conditions may differ. Each block holds one molecule with its values, some of them ahead of it. No end group written: not given here.

Tests used:
[1] = target: T1, regulatory RIIβ subunits of PKA (Rattus norvegicus, UniProt P12369); assay: RII overlay of membrane-bound (SPOT) peptides, radiolabelled RIIβ as probe, densitometry; assay type: binding; details: in words
T1 construct: Prof; Dr. Friedrich W. Herberg, University of Kassel, Germany (obtained from an academic laboratory, not a vendor)
T1 sequence (P12369 whole entry): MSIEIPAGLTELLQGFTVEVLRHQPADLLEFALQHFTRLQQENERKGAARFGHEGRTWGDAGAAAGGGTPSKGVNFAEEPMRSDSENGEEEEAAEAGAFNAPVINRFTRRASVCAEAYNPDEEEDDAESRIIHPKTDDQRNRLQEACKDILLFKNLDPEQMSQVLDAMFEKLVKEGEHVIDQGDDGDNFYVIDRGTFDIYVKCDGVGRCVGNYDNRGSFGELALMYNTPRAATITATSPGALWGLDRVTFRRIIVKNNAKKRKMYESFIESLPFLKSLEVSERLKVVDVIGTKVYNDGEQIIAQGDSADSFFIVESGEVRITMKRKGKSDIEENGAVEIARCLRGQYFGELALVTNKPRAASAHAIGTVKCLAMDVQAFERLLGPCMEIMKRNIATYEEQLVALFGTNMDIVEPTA
Source text: (§1) Peptide libraries were synthesized by means of automatic SPOT synthesis on Whatman 50 cellulose membranes according to standard protocols using Fmoc chemistry and AutoSpot Robot ATE 222 (Intavis Bioanalytical Instruments AG, Cologne). The protective groups of the amino acid side chains were removed using a mixture of trifluoroacetic acid (TFA) in dichloromethane (DCM) (Frank, 1992; Kramer and Schneider-Mergener, 1998). For control, spots (about 50 nmol of peptide per spot) were cut from the cellulose membrane, removed from the membrane by treatment with 0.05 M NaOH, and analyzed using HPLC and MALDI-TOF mass spectrometry.
(§2) • 1. Regulatory RIIα (human) and RIIβ (rat) subunits of PKA, obtained from Prof. Dr. Friedrich W. Herberg, University of Kassel, Germany. • 2. Catalytic subunits of PKA, Promega, Mannheim, Germany, Order No. V5161 • 3. [γ-^32P]ATP, 5000 Ci/mmol, Amersham Biosciences, Brunswick, Germany, Order No. AA0018 • 4. Sephadex G 50, medium Pharmacia, Order No. 17-0043-01 • 5. Phosphate-buffered saline (PBS)
(§3) The ATP concentration was adjusted to 10 μM by addition of non-radioactive ATP (addition of 5 μl of a 1 mM solution). The batch was incubated on ice for another 50 min.
(§4) The reaction was quenched by adding dextran blue and removing free nucleotides. The free ATP was removed on a Sephadex G50 column.
(§5) Non-incorporated nucleotides were separated from the RII subunits by fractionation on Sephadex G 50 columns. • 1. Swelling of the Sephadex G 50 material: 20 g thereof was allowed to swell in 400 ml of PBS at room temperature overnight. Non-settled material was subsequently removed with a Pasteur pipette. The swollen material was aliquoted in 50 ml Falcon tubes and stored at 4° C. For preservation, sodium azide was added to make a final concentration of 0.01%. • 2. The material was poured into a 10 ml sterile disposable pipette sealed with a glass sphere. To settle the column bed, 50 ml of PBS containing 1 mg/ml BSA (bovine serum albumin) was allowed to pass.
(§6) Until used, the column was sealed with parafilm at the top thereof. • 3. The labelled RII subunits (500 μl), together with dextran blue (70 μl of a 20 mg/ml solution), were applied on the column (overall volume=570 μl). • 4. The sample was allowed to migrate into the matrix, followed by filling up with PBS. • 5. A short time before the dextran blue was eluted, collection of fractions was begun (2 fractions of 1.5 ml each, the other fractions 1 ml each). • 6. To determine the incorporation of ^32P, 1% (5.7 μl) of sample upstream of the column (corresponding to 1% of the radioactivity employed) and 3 μl of each fraction were used. • 7. The fractions of the first peak including the probe were combined. The incorporation rate in % was calculated and the specific activity (cpm/μg of protein) was determined.
(§7) • 1. The proteins (40 μg) were separated by means of SDS-PAGE and transferred on a PVDF membrane (PVDF: polyvinylidene fluoride) using a semi-dry electroblotting procedure. The membrane-associated proteins were stained with Ponceau S in order to identify the marker proteins on the membrane. Destaining was effected using TBS. • 2. The membrane was incubated in Blotto/BSA at 4° C. for 16 hours:
(§8) • 3. Blotto/BSA was replaced with fresh one and ^32P-labelled RII subunits were added (10^5 cpm/ml). This was incubated for 4-6 h at room temperature. • 4. The membrane was washed for 4×15 min in Blotto/BSA and for 2×10 min in 10 mM potassium phosphate buffer, pH 7.4, 0.15 M NaCl. • 5. RII-binding proteins were detected by exposition on a phosphoimager plate.
(§9) Identification of AKAP18δ-derived peptides inhibiting the interaction of AKAP proteins with the regulatory RIIα and RIIβ subunits of PKA. A: Peptides derived from the PKA binding domain of AKAP18δ were synthesized on two membranes. The membranes were incubated with radiolabelled regulatory RIIα (upper row) or RIIβ subunits (row below) of the PKA (RII overlay experiment). […]

RIIα subunits of the PKA = RIIα subunits of the PKA (Homo sapiens, UniProt P13861); assay: Summary statement on RIIα binding of AKAP18δ-derived peptides; details: in words
Chain of RIIα subunits of the PKA (P13861 whole entry): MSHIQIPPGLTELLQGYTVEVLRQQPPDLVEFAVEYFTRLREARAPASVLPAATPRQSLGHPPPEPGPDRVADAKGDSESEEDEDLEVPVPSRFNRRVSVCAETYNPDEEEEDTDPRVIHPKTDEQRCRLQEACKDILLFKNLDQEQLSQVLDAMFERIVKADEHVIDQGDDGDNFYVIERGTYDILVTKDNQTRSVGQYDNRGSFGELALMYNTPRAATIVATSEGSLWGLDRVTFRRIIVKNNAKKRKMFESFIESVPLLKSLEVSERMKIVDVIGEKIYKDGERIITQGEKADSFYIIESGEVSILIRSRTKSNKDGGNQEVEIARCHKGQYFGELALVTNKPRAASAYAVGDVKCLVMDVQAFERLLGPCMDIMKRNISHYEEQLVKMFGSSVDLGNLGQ
Source text: We explain this by binding via hydrogen bridges (H bridges) between peptide and RII dimer (see Fig., hydrogen bridges represented by broken lines). Correspondingly, a common feature of the peptides is the minimum number (8) of amino acids forming H bridges.

[2] = target: T2, regulatory RIIα subunits of PKA (Homo sapiens, UniProt P13861); assay: RII overlay of membrane-bound (SPOT) peptides, radiolabelled RIIα as probe, densitometry; assay type: binding; details: human RIIα as probe; in words
T2 construct: Prof; Dr. Friedrich W. Herberg, University of Kassel, Germany (obtained from an academic laboratory, not a vendor)
T2 sequence (P13861 whole entry): as above
Source text: as §1, §2, §3, §4, §5, §6, §7, §8, §9

[3] = target: T3, regulatory RIIα subunit of PKA (human) (human, UniProt P13861 1-404, 32P-labelled with the catalytic subunit of PKA when used as probe in the RII overlay experiments); assay: RII overlay on SPOT membrane, densitometry; reference AKAP18δ-wt
T3 construct: Radiolabelled probe in RII overlays; format in the surface plasmon resonance measurements is not described; also called human RIIα
T3 sequence (P13861 whole entry): as above

[4] = target: T4, regulatory RIIβ subunit of PKA (rat) (rat, UniProt P12369 1-416, 32P-labelled with the catalytic subunit of PKA when used as probe in the RII overlay experiments); assay: as above
T4 construct: Radiolabelled probe in RII overlays; format in the surface plasmon resonance measurements is not described; also called RIIβ subunit of PKA from rats
T4 sequence (P12369 whole entry): as the sequence (P12369 whole entry) above

[5] = target: T3, regulatory RIIα subunit of PKA (human); assay: RII overlay on SPOT membrane, densitometry; references AKAP18δ-L304T and AKAP18δ-L314E
[6] = target: T4, regulatory RIIβ subunit of PKA (rat); assay: as above
human RIIα subunits = human RIIα subunits (Homo sapiens, UniProt P13861); assay: Surface plasmon resonance measurement of peptide binding to RIIα
Chain of human RIIα subunits (P13861 whole entry): as the sequence (P13861 whole entry) above

RIIβ subunits from rats = RIIβ subunits from rats (Rattus norvegicus, UniProt P12369); assay: Surface plasmon resonance measurement of peptide binding to RIIβ
Chain of RIIβ subunits from rats (P12369 whole entry): as the sequence (P12369 whole entry) above

[7] = target: murine RIIα subunit of PKA (Mus musculus, UniProt P12367); details: Alto et al. (2003); cited from earlier work
Chain of murine RIIα subunit of PKA (P12367 whole entry): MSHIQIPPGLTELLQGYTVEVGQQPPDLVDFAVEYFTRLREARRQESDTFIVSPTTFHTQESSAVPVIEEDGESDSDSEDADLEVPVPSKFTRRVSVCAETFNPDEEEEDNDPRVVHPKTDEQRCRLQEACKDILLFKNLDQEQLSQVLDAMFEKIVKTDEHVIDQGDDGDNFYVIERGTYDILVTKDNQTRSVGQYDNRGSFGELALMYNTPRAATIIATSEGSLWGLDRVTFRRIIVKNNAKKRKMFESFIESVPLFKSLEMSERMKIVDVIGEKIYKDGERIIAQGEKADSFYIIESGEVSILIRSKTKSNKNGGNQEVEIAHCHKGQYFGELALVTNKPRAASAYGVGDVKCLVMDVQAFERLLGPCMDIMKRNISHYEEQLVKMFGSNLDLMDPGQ

[8] = target: T3, regulatory RIIα subunit of PKA (human); assay: surface plasmon resonance
[9] = target: T4, regulatory RIIβ subunit of PKA (rat); assay: surface plasmon resonance
[10] = target: T4, regulatory RIIβ subunit of PKA (rat); assay: RII overlay: SPOT peptides on membrane, probe 32P-labelled RIIβ, phosphoimager
[11] = target: T3, regulatory RIIα subunit of PKA (human); assay: RII overlay: SPOT peptides on membrane, probe 32P-labelled RIIα, phosphoimager
[12] = target: T4, regulatory RIIβ subunit of PKA (rat); assay: RII overlay on SPOT membrane with radiolabelled RIIβ
[13] = target: T3, regulatory RIIα subunit of PKA (human); assay: RII overlay on SPOT membrane with radiolabelled RIIα

Molecule: CC(C)C[C@H](NC(=O)[C@H](CCCNC(=N)N)NC(=O)[C@@H](NC(=O)[C@H](CC(C)C)NC(=O)[C@H](CCC(=O)O)NC(=O)[C@H](C)NC(=O)[C@H](CC(=O)O)NC(=O)[C@H](CCC(=O)O)NC(=O)[C@@H]1CCCN1)C(C)C)C(=O)N[C@@H](CO)C(=O)N[C@@H](CCCCN)C(=O)N[C@@H](CCCNC(=N)N)C(=O)N[C@@H](CC(C)C)C(=O)N[C@H](C(=O)N[C@@H](CCC(=O)O)C(=O)N[C@@H](CC(N)=O)C(=O)N[C@@H](C)C(=O)N[C@H](C(=O)N[C@@H](CCC(=O)O)C(=O)N[C@@H](CCCCN)C(=O)N[C@@H](C)C(=O)N[C@H](C(=O)N[C@@H](CCC(N)=O)C(=O)N[C@@H](CCC(N)=O)C(=O)N[C@@H](Cc1ccc(O)cc1)C(=O)O)C(C)C)C(C)C)C(C)C [AKAP18δ-L314E]
binding to RIIβ subunits in RII overlay [1]: stronger binding; also recorded: bind strongly
RIIα binding compared with peptides derived from natural AKAPs (RIIα subunits of the PKA): bind stronger than any other peptide derived from natural AKAPs
binding to RIIα subunits in RII overlay [2]: stronger binding; also recorded: bind strongly

Molecule: Ht31 (peptide)
fold weaker binding than AKAP18δ-wt [3]: 5 fold
fold weaker binding than AKAP18δ-wt [4]: 5 fold
fold weaker binding than AKAP18δ-L304T and AKAP18δ-L314E [5]: 5 to 6 fold
fold weaker binding than AKAP18δ-L304T and AKAP18δ-L314E [6]: 5 to 6 fold

Molecule: EPEDAELVRLSKRLVENAVLKAVQQYLEETQ (listed as Homo sapiens) [AKAP18δ-RI]
binding to RIIβ subunits in RII overlay [1]: weaker
RIIα binding compared with peptides derived from natural AKAPs (RIIα subunits of the PKA): bind stronger than any other peptide derived from natural AKAPs
binding to RIIα subunits in RII overlay [2]: weaker

Molecule: KGADLIEEAASRIVDAVIEQVKAAG [Ht31, reference compound]
Kd (human RIIα subunits): 15 nM
Kd (RIIβ subunits from rats): 35 nM
Kd [7]: 2.2 nM

Molecule: PEDAELVRTSKRLVENAVLKAVQQY [AKAP18δ-L304T]
Kd (human RIIα subunits): 0.3 to 0.9 nM
Kd (RIIβ subunits from rats): 35 nM
binding to RIIβ subunits in RII overlay [1]: stronger binding; also recorded: bind strongly
RIIα binding compared with peptides derived from natural AKAPs (RIIα subunits of the PKA): bind stronger than any other peptide derived from natural AKAPs
binding to RIIα subunits in RII overlay [2]: stronger binding; also recorded: bind strongly

B3: AKAP18δ-RI (peptide)
peptide: EPEDAELVRLSKRLVENAVLKAVQQYLEETQ
notes: also called Akap18delta-RI; No. AA
binding result [10]: binds
binding result [11]: binds

Further lines, with some results ahead:

RIIα binding KD (human RIIα subunits): no binding
RIIβ binding KD (RIIβ subunits from rats): no binding
binding to RIIβ subunits in RII overlay [1]: barely bind
binding to RIIα subunits in RII overlay [2]: barely bind
Molecule: AKAPIS [peptide developed by Alto et al. (2003); IS, in silico, reference compound]
Kd [7]: 0.45 nM
affinity increased compared to the Ht31 peptide [7]: 5 times

binding result [8]: no binding
binding result [9]: no binding
B1: AKAP18δ-P (peptide)
peptide: PEDAELVRLSKRLPENAVLKAVQQY
notes: Proline-substituted negative control; also called AKAP18delta-P; No. X

binding result [8]: no binding
binding result [9]: no binding
B2: AKAP18δ-PP (peptide)
peptide: PEDAELVRLSKRLPENAPLKAVQQY
notes: Double proline-substituted negative control; also called AKAP18delta-PP

binding result [12]: no binding
binding result [13]: binds
B4: A18δRIIαRn3 (10/12) (peptide)
peptide: ANDARLVRLPKRLVENAVLKAVQQY
notes: Member of the substitution library of peptide 7 (row 10, peptide 12); also called peptide 10/12; No. FF

binding result [12]: binds
binding result [13]: no binding
B5: A18δRIIβRn1 (21/4) (peptide)
peptide: ANDARLVRLSKRLVENAVLKFVQQY
notes: Member of the substitution library of peptide 7 (row 21, peptide 4); also called peptide 21/4; A18δRIIβRnl
